Reference: PubChem BioAssay (NCI)
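Interpolation was linear, between the two tested concentrations surrounding the appropriate level; five concentrations were tested over 48 hours in 96-well plates. The concentration for 50% growth inhibition is given as GI50. Definition used: TGI = concentration required for complete inhibition of growth.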

Tests used:
Assay in all cases: NCI-60 cell line screen, 48 h
UACC-257 melanoma = system: UACC-257 melanoma
UO-31 renal = system: UO-31 renal
LOX IMVI melanoma = system: LOX IMVI melanoma
TK-10 renal = system: TK-10 renal
NCI-H226 lung = system: NCI-H226 lung
MDA-MB-231 breast = system: MDA-MB-231 breast
MDA-MB-435 = system: MDA-MB-435
IGROV1 ovarian = system: IGROV1 ovarian
T-47D breast = system: T-47D breast
A549 NSCLC = system: A549 NSCLC

Row | Compound | GI50 (UACC-257 melanoma) [µM] | TGI (UACC-257 melanoma) [µM] | GI50 (UO-31 renal) [µM] | TGI (UO-31 renal) [µM] | GI50 (LOX IMVI melanoma) [µM] | TGI (LOX IMVI melanoma) [µM] | GI50 (TK-10 renal) [µM] | TGI (TK-10 renal) [µM] | GI50 (NCI-H226 lung) [µM] | TGI (NCI-H226 lung) [µM] | GI50 (MDA-MB-231 breast) [µM] | TGI (MDA-MB-231 breast) [µM] | GI50 (MDA-MB-435) [µM] | TGI (MDA-MB-435) [µM] | GI50 (IGROV1 ovarian) [µM] | TGI (IGROV1 ovarian) [µM] | GI50 (T-47D breast) [µM] | TGI (T-47D breast) [µM] | GI50 (A549 NSCLC) [µM] | TGI (A549 NSCLC) [µM]
1 | CCOC(=O)C1=C(C)NC2SC(=O)/C(=C\c3cccc(Cl)c3)N2C1c1ccccc1 (stereo not given) | > 100 | > 100 | > 100 | > 100 | > 100 | > 100 | > 100 | > 100 | > 100 | > 100 | > 100 | > 100 | > 100 | > 100 | > 100 | > 100 | > 100 | > 100 | > 100 | > 100
2 | COc1cc(-c2oc3c(OC)c(O)c(OC)c(O)c3c(=O)c2OC)cc(OC)c1OC |  | > 100 |  | > 100 |  | > 100 |  | > 100 |  | > 100 |  | > 100 |  | > 100 |  | > 100 |  | > 100 |  | > 100
3 | CC(C)[C@@]12C[C@@H](OC(=O)COC(=O)c3ccccc3)[C@@](C)(O1)[C@@H]1CC[C@@H](C)[C@H]1[C@@H]2OC(=O)/C=C/c1ccccc1 | > 100 | > 100 | 0.115 | 1.66 | > 63.4 | > 100 | > 100 | > 100 | 18.7 | > 100 | > 100 | > 100 | > 100 | > 100 | > 100 | > 100 | > 34.6 | > 100 | > 100 | > 100
4 | Cc1cc(O)ccc1C1(c2ccc(O)cc2C)OC(=O)c2ccccc21 | 23.8 | 46 | 18.1 | 36.7 | 18.5 | 37.7 | 17 | 30.8 | 19.1 | 41 | 21.4 | 48.9 | 15.6 | 29.7 | 21 | 47.5 | 20.2 | 41.3 | 20.8 | 37
5 | CCN1CCN(Cc2ccc(Nc3ncc(F)c(-c4cc(F)c5nc(C)n(C(C)C)c5c4)n3)nc2)CC1 | 5.45 | 7.97 | 0.139 | 7.26 | 1.41 | 10.9 | 0.029 | 8.63 | 0.109 | 25.2 | 6.29 | 13 | 0.191 | 10.7 | 2.03 | 13.1 | 19.3 | 29 | 0.411 | 11.9
6 | Cc1[nH]c(C(=O)Nc2cccc(OC3CCNCC3)c2)c(Cl)c1Cl | 1.76 | 3.55 | 1.52 | 2.94 | 1.66 | 3.16 | 1.94 | 3.7 | 2.43 | 6.78 | 1.74 | 3.45 | 1.81 | 3.3 | 1.76 | 3.37 | 1.96 | 4.52 | 2.04 | 4.17
